Columns and labels:
Assay type in all cases: cell-based
rTAAR7h = molecular target: T1, rTAAR7h (Rattus norvegicus, UniProt Q923Y4); assay: TAAR reporter gene assay, rTAAR7h; design: Full Taar coding regions were cloned into pcDNA3.1-(Invitrogen); Rho tag (first 20 aa of bovine rhodopsin + linker); expressed in transfected cells; host or cells: HEK293
T1 sequence (Q923Y4 1-358): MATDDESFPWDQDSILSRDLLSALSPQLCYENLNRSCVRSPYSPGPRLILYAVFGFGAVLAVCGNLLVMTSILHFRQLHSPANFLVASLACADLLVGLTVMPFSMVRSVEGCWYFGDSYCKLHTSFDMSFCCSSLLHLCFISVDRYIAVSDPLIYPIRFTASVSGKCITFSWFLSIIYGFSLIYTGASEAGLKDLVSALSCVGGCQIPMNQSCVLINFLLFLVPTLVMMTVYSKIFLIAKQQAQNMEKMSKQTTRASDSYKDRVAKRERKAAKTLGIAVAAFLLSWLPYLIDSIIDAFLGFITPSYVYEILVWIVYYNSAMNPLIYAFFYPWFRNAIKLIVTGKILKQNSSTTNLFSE
Description: (§1) Here, we set out to identify agonists for additional mouse and rat TAARs. We examined odor response profiles using a previously established reporter gene assay based on cAMP-dependent odor transduction in olfactory sensory neurons (40, 42). Briefly, TAAR plasmids were transfected into HEK293 cells along with a cAMP-dependent reporter gene encoding secreted alkaline phosphatase (CRE-SEAP). TAARs were expressed both in unmodified form and as fusion proteins with an N-terminal sequence of bovine rhodopsin (‘Rho tag’) that promotes cell surface expression of some chemosensory receptors (35). Transfected cells were incubated with test chemicals, and phosphatase activity was quantified with a fluorescent substrate as a reporter for TAAR activation. In initial experiments, we tested 38 different odorant mixtures containing 244 structurally diverse test chemicals (2-5 μM) for the ability to activate each mTAAR. Subsequently, we tested 73 amines that included known mTAAR agonists and related chemicals for the ability to activate each rTAAR.
(§2) TAAR functional assays. […] Fluorescence was measured on an EnVision plate reader (Perkin Elmer) and SEAP activity graphed as relative fluorescence of a phosphatase substrate.

rTAAR7d = molecular target: T2, rTAAR7d (Rattus norvegicus, UniProt Q923X5); assay: TAAR reporter gene assay, rTAAR7d; design: Full Taar coding regions were cloned into pcDNA3.1-(Invitrogen); Rho tag (first 20 aa of bovine rhodopsin + linker); expressed in transfected cells; host or cells: HEK293
T2 sequence (Q923X5 1-358): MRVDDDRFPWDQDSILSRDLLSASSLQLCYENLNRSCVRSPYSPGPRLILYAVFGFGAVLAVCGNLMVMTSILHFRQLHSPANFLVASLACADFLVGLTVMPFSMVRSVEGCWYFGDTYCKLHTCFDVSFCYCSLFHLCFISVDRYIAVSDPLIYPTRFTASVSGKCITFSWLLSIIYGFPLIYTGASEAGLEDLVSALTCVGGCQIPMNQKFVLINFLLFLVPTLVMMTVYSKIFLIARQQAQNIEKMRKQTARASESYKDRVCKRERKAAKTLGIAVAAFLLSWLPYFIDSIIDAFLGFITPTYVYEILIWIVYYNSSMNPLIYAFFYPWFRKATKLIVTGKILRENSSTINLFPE
Description: as §1, §2

mTAAR7b = molecular target: T3, mTAAR7b (Mus musculus, UniProt Q5QD11); assay: TAAR reporter gene assay, mTAAR7b; design: Full Taar coding regions were cloned into pcDNA3.1-(Invitrogen); Rho tag (first 20 aa of bovine rhodopsin + linker); expressed in transfected cells; host or cells: HEK293
T3 sequence (Q5QD11 1-358): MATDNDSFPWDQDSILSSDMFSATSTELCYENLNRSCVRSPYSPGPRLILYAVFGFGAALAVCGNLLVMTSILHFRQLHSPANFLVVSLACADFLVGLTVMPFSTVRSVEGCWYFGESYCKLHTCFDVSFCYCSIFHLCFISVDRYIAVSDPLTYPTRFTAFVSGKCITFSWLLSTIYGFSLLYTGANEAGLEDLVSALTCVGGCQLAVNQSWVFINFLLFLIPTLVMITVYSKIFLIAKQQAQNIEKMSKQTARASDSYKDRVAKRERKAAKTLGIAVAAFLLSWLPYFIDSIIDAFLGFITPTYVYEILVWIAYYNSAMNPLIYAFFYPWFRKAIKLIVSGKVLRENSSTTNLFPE
Description: as §1, §2

olfactory TAARs = assay: TAAR reporter gene assay, panel of mouse and rat TAARs in HEK293 cells; conditions: for TAAR activation: mouse and rat TAARs
Description: as §1
TAAR functional assays. Full Taar coding regions were cloned into pcDNA3.1-(Invitrogen) with or without a 5′ DNA extension of 69 bp encoding the first 20 amino acids of bovine rhodopsin followed by a cloning linker ([…]). Point mutations were introduced in mTAAR7e and mTAAR7f by overlap extension PCR. Functional assays were performed as described (40, 42). Fluorescence was measured on an EnVision plate reader (Perkin Elmer) and SEAP activity graphed as relative fluorescence of a phosphatase substrate.

rTAAR7b = molecular target: T4, rTAAR7b (Rattus norvegicus, UniProt Q923X8); assay: TAAR reporter gene assay, rTAAR7b; design: Full Taar coding regions were cloned into pcDNA3.1-(Invitrogen); expressed in transfected cells; host or cells: HEK293
T4 sequence (Q923X8 1-358): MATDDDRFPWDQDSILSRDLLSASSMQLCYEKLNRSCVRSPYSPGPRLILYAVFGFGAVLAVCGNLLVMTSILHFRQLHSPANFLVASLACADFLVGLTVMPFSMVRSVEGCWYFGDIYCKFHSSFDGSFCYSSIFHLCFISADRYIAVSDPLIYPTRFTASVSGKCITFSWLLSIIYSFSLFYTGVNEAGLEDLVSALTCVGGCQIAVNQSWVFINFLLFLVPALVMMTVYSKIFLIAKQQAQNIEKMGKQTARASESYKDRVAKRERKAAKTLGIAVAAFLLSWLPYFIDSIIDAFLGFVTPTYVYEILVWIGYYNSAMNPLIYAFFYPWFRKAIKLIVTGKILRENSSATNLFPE
Description: as §1, §2

SMILES | rTAAR7h activation (rTAAR7h) | rTAAR7d activation (rTAAR7d) | mTAAR7b activation (mTAAR7b) | TAAR activation (olfactory TAARs) | rTAAR7b activation (rTAAR7b) | activation of other olfactory TAARs with identified ligands (olfactory TAARs; 10 μM (FIG. 2D))
CN(C)CCc1ccccc1 [ligand 6, N,N-dimethyl-2-phenylethylamine] | activated | not | not | activated different TAAR7 paralogs | not | –
CN(C)C1CCCCC1 [ligand 10, N,N-dimethylcyclohexylamine] | not | activated | activated | activated different TAAR7 paralogs | activated | –
NCCc1ccccc1 [2-phenylethylamine] | – | – | – | – | – | did not similarly activate
